For data set [1] the following is noted: for Cmax GB: 4.5 mg, pH 2; for AUC / Cmax IB: pH 5.5.
The nature of the next data set: in vivo. Conditions: male, Sprague-Dawley, rat, 400 mg/kg. The method, then:
Rats were allowed to eat ad libitum before testing. […] Following drug administration, 200 μl of plasma was collected from each animal at the following time points: 30, 60, 90, 120, 160 and 240 minutes. Plasma samples were snap frozen in liquid N2 and stored at −80° C. until analysis.

For data set [2] the following is noted: label / literature; cited from earlier work.
The test system of a further data set is SOD1 mouse model. The settings on record: cited from earlier work.
Where [3] appears, read: SOD1 mouse model, published results (Shin et al. 2012; Lincecum et al. 2010).

On to `O=C(O)c1cc(N=Nc2ccc(S(=O)(=O)Nc3ccccn3)cc2)ccc1O` [Amorphous sulfasalazine, sulfasalazine], for which, in data set [1], the “Cmax GB” value stood at 154000 ng/mL, the AUC is given as 30,300 min * ug/mL and the “Cmax IB” value came out at 372000 ng/mL.
As to `O=C(O)c1cc(N=Nc2ccc(S(=O)(=O)Nc3ccccn3)cc2)ccc1O` [Crystalline sulfasalazine, sulfasalazine], in data set [1], the “Cmax GB” value amounted to 15000 ng/mL, the AUC was 22,200 min * ug/mL and the “Cmax IB” value was 282000 ng/mL. In the data set “in vivo”, this compound returned a concentration at 0.5 h of 1490 ng/mL, a concentration at 1 h of 1140 ng/mL, a concentration at 1.5 h of 1430 ng/mL and a concentration at 2 h of 1260 ng/mL. Also, in the data set “in vivo”, the concentration at 3 h came out at 1030 ng/mL and the concentration at 4 h amounted to 850 ng/mL.
On to `Nc1ccc(S(=O)(=O)Nc2ccccn2)cc1` [Sulfapyridine, sulfapyridine], for which, in data set [2], the “bioavailability (share reaching the circulation following oral dosing)” value is reported as more than 70%.
Turning to `CC(C)Cc1ccc(C(C)C(=O)O)cc1` (stereo not shown) [ibuprofen], in the data set with SOD1 mouse model (setting [3]), the “decreased lifespan after onset of neurological disease” value was 10%.
In the case of `Nc1nc2ccc(OC(F)(F)F)cc2s1` [riluzole], the increased absolute lifespan in the data set on SOD1 mouse model (SOD1 model, Lincecum et al. 2010) is listed as 1.6%. The “increased lifespan after onset of neurological disease” value with SOD1 mouse model (setting [3]) was 1%.
